Active and inactive are the calls of the source. No cut-off for these calls is given here. Bounds are passed on as bounds.

Assay [1] deals with RecQ-like DNA helicase BLM (Homo sapiens, UniProt P54132). Briefly: Inhibition of BLM (unknown origin) ATPase activity.
Assay [2] concerns the target T1, Bifunctional 3'-5' exonuclease/ATP-dependent helicase WRN (Homo sapiens, UniProt Q14191). Briefly: Inhibition of recombinant human WRN unwinding activity by immunosorbent-based helicase unwinding assay.
For assay [3], the target named is T1, Bifunctional 3'-5' exonuclease/ATP-dependent helicase WRN. The assay can be described thus: Inhibition of WRN (unknown origin) ATPase activity.
Assay [4] relates to Microsatellite instability cancer cell. Briefly: Cytotoxicity against Microsatellite instability cancer cell (unknown origin). Format: functional, cell-based.
Assay [5] can be described thus: Inhibition of HSP90 (unknown origin) ATPase activity. On the set-up: species or system Homo sapiens.
For assay [6], the target named is T2, Eukaryotic initiation factor 4A-I (Homo sapiens, UniProt P60842). Briefly: Inhibition of eIF4A (unknown origin) ATPase activity within 200 uM.
T2 sequence (P60842 whole entry): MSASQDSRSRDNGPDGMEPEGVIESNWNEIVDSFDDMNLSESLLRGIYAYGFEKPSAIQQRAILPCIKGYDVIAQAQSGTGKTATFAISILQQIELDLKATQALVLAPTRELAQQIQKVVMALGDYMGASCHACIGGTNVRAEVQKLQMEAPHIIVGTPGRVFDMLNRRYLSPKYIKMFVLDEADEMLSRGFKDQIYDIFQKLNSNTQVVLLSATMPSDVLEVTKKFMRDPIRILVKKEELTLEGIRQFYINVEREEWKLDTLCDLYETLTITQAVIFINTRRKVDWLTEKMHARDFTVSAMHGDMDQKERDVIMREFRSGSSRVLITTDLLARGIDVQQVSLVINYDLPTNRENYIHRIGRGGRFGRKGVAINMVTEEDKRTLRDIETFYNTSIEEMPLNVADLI
In assay [7] the target is T2, Eukaryotic initiation factor 4A-I. The assay can be described thus: Inhibition of eIF4A (unknown origin) ATPase activity.
For assay [8] the target is unchanged. Briefly: Inhibition of eIF4A (unknown origin) ATPase activity at <200 uM.
The species named for assay [9] is Homo sapiens. Briefly: Inhibition of HSP90 (unknown origin) ATPase activity within 200 uM.
For assay [10], the species on record is Homo sapiens. The assay can be described thus: Inhibition of HSP90 (unknown origin) ATPase activity at <200 uM.
The target of assay [11] is T1, Bifunctional 3'-5' exonuclease/ATP-dependent helicase WRN. Briefly: Inhibition of WRN (unknown origin).

T1 sequence (Q14191 whole entry): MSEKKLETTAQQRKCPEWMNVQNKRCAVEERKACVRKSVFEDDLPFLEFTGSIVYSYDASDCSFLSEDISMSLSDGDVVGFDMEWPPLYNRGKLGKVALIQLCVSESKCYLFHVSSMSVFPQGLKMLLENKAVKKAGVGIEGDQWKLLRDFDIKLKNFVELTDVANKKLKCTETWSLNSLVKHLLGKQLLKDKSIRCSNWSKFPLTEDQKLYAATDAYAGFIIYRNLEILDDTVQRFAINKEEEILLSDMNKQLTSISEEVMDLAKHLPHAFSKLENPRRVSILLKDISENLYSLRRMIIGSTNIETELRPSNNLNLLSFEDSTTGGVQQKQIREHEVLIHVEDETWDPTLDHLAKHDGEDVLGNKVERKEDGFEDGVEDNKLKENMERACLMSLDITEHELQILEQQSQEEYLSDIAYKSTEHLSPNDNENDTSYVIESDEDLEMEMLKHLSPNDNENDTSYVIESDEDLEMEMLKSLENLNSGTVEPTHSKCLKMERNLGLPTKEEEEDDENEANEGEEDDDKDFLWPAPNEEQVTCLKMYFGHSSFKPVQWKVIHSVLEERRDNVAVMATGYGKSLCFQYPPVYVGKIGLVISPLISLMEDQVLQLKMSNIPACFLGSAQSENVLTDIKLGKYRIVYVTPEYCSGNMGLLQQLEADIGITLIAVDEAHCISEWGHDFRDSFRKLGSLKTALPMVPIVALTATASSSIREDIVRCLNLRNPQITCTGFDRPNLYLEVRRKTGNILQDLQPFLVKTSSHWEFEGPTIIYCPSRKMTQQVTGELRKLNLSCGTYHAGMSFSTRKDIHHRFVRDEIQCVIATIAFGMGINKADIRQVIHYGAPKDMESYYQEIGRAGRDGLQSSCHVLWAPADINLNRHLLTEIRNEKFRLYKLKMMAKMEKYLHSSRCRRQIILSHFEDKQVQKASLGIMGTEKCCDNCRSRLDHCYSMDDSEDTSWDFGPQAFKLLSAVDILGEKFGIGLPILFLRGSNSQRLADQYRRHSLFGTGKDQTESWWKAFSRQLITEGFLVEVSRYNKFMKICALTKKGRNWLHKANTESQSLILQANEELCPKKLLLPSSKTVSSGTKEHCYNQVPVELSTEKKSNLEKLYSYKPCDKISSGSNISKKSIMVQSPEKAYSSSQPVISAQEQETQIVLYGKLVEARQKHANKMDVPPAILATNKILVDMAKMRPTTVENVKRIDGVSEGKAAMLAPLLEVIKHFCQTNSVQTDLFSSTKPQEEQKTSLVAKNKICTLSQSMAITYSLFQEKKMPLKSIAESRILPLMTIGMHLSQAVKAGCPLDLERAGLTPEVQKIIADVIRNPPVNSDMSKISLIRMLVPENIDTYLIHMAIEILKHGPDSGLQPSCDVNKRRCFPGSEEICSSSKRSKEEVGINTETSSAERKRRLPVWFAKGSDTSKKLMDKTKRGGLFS
Chain of RecQ-like DNA helicase BLM (P54132 whole entry): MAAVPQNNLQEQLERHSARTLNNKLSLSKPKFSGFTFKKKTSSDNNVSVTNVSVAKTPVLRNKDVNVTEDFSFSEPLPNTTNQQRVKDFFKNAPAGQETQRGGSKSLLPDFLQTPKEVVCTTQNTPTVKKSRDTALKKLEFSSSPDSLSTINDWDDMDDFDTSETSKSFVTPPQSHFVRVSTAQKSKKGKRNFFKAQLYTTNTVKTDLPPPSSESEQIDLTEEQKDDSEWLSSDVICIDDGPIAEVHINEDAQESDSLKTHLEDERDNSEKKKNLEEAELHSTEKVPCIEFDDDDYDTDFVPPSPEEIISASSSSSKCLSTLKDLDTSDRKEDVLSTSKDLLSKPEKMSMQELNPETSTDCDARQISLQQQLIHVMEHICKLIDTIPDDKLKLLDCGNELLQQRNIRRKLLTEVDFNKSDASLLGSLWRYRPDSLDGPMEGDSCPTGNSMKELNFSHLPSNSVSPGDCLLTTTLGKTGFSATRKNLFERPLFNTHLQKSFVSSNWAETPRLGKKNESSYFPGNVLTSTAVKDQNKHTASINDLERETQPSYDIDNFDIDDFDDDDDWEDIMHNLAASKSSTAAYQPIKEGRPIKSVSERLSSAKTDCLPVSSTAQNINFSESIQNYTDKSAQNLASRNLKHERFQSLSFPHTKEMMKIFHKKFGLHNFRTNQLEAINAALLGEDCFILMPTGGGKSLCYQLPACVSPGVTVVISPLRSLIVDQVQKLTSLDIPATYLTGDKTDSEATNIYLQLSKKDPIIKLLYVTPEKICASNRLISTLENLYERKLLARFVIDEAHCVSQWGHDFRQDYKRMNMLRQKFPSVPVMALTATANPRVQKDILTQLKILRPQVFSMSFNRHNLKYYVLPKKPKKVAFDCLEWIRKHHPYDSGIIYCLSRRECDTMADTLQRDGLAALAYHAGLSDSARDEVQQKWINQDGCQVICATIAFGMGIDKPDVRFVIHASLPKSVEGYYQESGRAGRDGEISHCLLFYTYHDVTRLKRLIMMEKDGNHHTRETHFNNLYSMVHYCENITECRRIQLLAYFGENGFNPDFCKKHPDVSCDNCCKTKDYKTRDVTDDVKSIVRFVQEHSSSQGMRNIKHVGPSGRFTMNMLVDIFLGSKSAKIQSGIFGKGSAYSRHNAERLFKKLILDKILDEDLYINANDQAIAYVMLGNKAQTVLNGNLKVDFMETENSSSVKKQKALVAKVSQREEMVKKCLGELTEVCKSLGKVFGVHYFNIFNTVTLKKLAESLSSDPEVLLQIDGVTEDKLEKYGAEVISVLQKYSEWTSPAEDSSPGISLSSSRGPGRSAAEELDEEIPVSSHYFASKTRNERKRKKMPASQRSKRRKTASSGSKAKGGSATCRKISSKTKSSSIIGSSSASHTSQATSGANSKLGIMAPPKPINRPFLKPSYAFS

The term IC50 denotes the concentration that gives 50% inhibition. Take `Cc1ccc(NC(=O)CN2C(=O)N/C(=C/c3ccccc3OCc3cccc(C(=O)O)c3)C2=O)cc1`: the IC50 was found to be 26.3 µM in assay [1], 9.8 µM in assay [2], 15.8 µM in assay [3] and 47.6 µM in assay [5]. Moreover, the result in [4] was inactive. Besides, in assay [6], the inhibition entry is “inactive”.

Turning to `CCC(=O)OCN1C(=O)C=CC1=O`, the IC50 is 1.6 µM in assay [1], greater than 200 µM in [7] and 10.4 µM in assay [3]. The inhibition result in [8] is “Active”. Also, the inhibition result in the assay filed under Homo sapiens [9] is “inactive”.

In the case of `O=C1/C(=C2\Nc3ccc(S(=O)(=O)O)cc3C2=O)Nc2ccc(S(=O)(=O)O)cc21` [INDIGOTINDISULFONATE], the IC50 was 3.3 µM in assay [1]; 0.2 µM in assay [2]; greater than 200 µM in [7]; 5 µM in assay [3]; greater than 200 µM in assay [5]. In addition, the inhibition result (in the assay filed under Homo sapiens [10]; in [8]) was “Active” throughout.

In the case of `CC(C)(CN1C(=O)C(Cl)=C(Cl)C1=O)CN1C(=O)C(Cl)=C(Cl)C1=O`, the IC50 in [1] turned out to be 11.3 µM; in assay [11] it was 0.23 µM; in assay [3], 88.7 µM. For the same compound, the inhibition entry (in [6]; in the assay listed under Homo sapiens [9]) was “inactive” each time.

In [11], `COc1ccc2nc(O)c(-c3noc(-c4ccc(F)cc4)n3)cc2c1` had an IC50 of 13 µM.

On to `COc1ccc2nc(O)c(-c3noc(-c4ccccc4)n3)cc2c1`, for which the IC50 in assay [11] came out at 2.3 µM.

The values above are taken from ChEMBL document CHEMBL5625270, “Targeting ATP-binding site of WRN Helicase: Identification of novel inhibitors through pocket analysis and Molecular Dynamics-Enhanced virtual screening” (Bioorg Med Chem Lett, 2024).
